According to patent US20210393503A1, “ORGANIC COMPOUNDS” (GIVAUDAN SA, priority 2017, published 2021):
Read-outs that look alike come from different tables or passages of the source.

Tests used:
[1] = system: S. aureus MRSA ATCC 33591; test: Biofilm formation by bacterial count on colonized RHO; format: cell-based, Staphylococcus aureus
Method: (§1) Immediately after the arrival in the laboratory, the RHO was removed from the agarose nutrient solution under a sterile airflow cabin. The inserts were rapidly placed in a 6-well plate previously filled with 1 ml of the maintenance medium containing antibiotics at room temperature. The wells were placed in an incubator at 37° C., 5% CO2 and saturated humidity overnight.
(§2) The protocol was performed on duplicate tissues for bacterial burden and on single tissue for further morphological analysis (SEM, H&E).
(§3) S. aureus MRSA ATCC 33591 was thawed and cultured in nutrient broth at 37° C., under agitation.
(§4) 30 μL of intermediate molecular weight hyaluronic acid solution (0.2% w/v) or of chlorhexidine (CHL) 0.2% (positive control), respectively, were topically applied to RHO samples, and incubated for 24 h. Then, the product residual volume was removed by a micropipette from the epithelium surface.
(§5) The RHO samples were then colonized with S. Aureus bacterial suspensions (O.D. 0.1 about 10^6 UFC/tissue), which was applied topically for 4 h. After 4 h, the remaining S. aureus solution was removed and RHO tissue samples were incubated for 16 h at 37° C., 5% CO2.
The samples for this assessment were prepared according to the procedure of example 5.
In order to perform the bacterial count on apical, basolateral and homogenate compartments, the following procedure was used: • For the basolateral compartment: 1 ml of culture medium from each well was sampled. • For the apical compartment, the samples from the TEER measurement according to example 6 were used: Each sample contained 500 μl of physiological saline solution. These samples were moved to a new 6-well plate that had been previously filled with 2 ml/well of saline solution and put in a sonicator bath for 7 minutes at 40 kHz. After sonication, 500 μl of saline solution were sampled for the apical compartment and the RHO tissues were rinsed twice with 200 μl of saline solution. The total amount of solution (900 μl) was then pooled together to obtain the harvested apical compartment. • For the homogenate compartment: a sterile scalpel blade has been used to harvest tissues from the insert and to place them in an Eppendorf tube containing 500 μL of 0.5% Triton X-100 solution prepared in sterile distilled water for at least 10 minutes.
Bacterial counts of the three compartments were performed on Nutrient Agar plates, plating the appropriate 10-fold dilutions (from the not diluted to 10-7) of each compartment suspension (one 10 μl drop for each dilution). After 1 day of incubation at 37° C., the colonies were numbered visually.

[2] = system: Reconstituted Human Oral Epithelium (RHO) colonized with S. Aureus; test: Biofilm formation by TEER on colonized RHO; format: cell-based
Method: as §1, §2, §3, §4
The RHO samples were then colonized with S. Aureus bacterial suspensions (O.D. 0.1 about 10^6 UFC/tissue), which was applied topically for 4 h. After 4 h, the remaining S. aureus solution was removed and RHO tissue samples were incubated for 16 h at 37° C., 5% CO2. […]
TEER was measured as described hereafter: 0.5 ml of physiological saline solution was directly applied on the tissue placed in a 6-well plate containing 5 ml of saline solution as well. […]

[3] = system: Reconstituted Human Oral Epithelium (RHO); test: Re-epithelization after injury by scanning electronic microscopy; format: cell-based; conditions: T24h after injury; for film forming on the tissue surface: high molecular weight 0.2%, FIG. 6; for tissue repair / wound recovery seen by SEM: low 0.5%, intermediate 0.2%, high 0.2%, magnification 10000x, FIGS. 4-6
Method: Experiments were performed on Reconstituted Human Oral Epithelium (RHO). Immediately after the arrival in the laboratory, the RHO was removed from the agarose nutrient solution under a sterile airflow cabin. The inserts were rapidly placed in a 6-well plate previously filled with 1 ml of the maintenance medium at room temperature. The wells were placed in an incubator at 37° C., 5% CO2 and saturated humidity overnight. On the next day, an injury was performed with a glass capillary. The RHO samples were then treated with a solution containing hyaluronic acid having low (20-50 kDa), intermediate (100-300 kDa) or high (1,000-1,400 kDa) molecular weight. Untreated RHO was used as a control without treatment. The RHO samples for this assessment were prepared according to the procedure of example 1. 24 h after treatment with hyaluronic acid, the samples for scanning electronic microscopy (SEM) were immediately fixed by immersion in 2.5% glutaraldehyde in phosphate buffered saline (PBS) for 24 h, washing in 0.1 M sodium cacodylate buffer, pH 7.4, and then carried out in 1% osmium tetraoxide (OsO4) in the same buffer (2 h at room temperature). The samples were dehydrated in ascending grades of ethanol at room temperature and Hexamethyldisilazane overnight. The samples were placed on pins with carbon tabs, coated with a layer of gold using a Polaron Equipment limited SEM coating unit […], and then transferred to a SEM Zeiss Sigma Electron Microscope for viewing and photography. Magnification of 10000× was performed.

[4] = system: Reconstituted Human Oral Epithelium (RHO); test: Re-epithelization after injury by TEER (trans epithelial electrical resistance); format: cell-based; conditions: 24 h after treatment; RHO injured with glass capillary; vs control not treated after injury; FIG. 1
Method: Experiments were performed on Reconstituted Human Oral Epithelium (RHO).
as §1, with “medium” for “medium containing antibiotics”
On the next day, an injury was performed with a glass capillary.
The RHO samples were then treated with a solution containing hyaluronic acid having low (20-50 kDa), intermediate (100-300 kDa) or high (1,000-1,400 kDa) molecular weight. Untreated RHO was used as a control without treatment.
(§6) The RHO samples for this assessment were prepared according to the procedure of example 1.
24 h after the treatment with hyaluronic acid, the trans epithelial electric resistance (TEER) was measured as follows:
0.5 ml of physiological saline solution was directly applied on the tissue placed in a 6-well plate containing 5 ml of saline solution as well. The two electrodes of a Millicell-ERS Voltohmmeter (range 0-20 kΩ) were placed were placed in two compartments on either side of the tissue, such that the electric flux passed through the tissue. The result of the measurement directly appeared on the display. […]

[5] = system: S. aureus MRSA ATCC 33591; test: Biofilm visualization by scanning electronic microscopy; format: cell-based, Staphylococcus aureus; conditions: 100-300 kDa, 0.2% w/v, colonization with S. Aureus, after 4 h
Method: as §1, §2, §3, §4, §5
The samples for this experiment were prepared according to the procedure of example 5.
After treatment, samples for SEM were immediately fixed by immersion in 2.5% gluteraldehyde in PBS. […]

Integrin beta 1 (ITGB1) = test: Re-epithelization after injury by immunohistochemistry on Integrin B1; format: cell-based, human; conditions: injured RHO, vs injured control, FIG. 7
Method: as §6
At the end of the exposures (at least overnight), the tissue samples were fixed in buffered 10% formalin. Samples were included in paraffin blocks and sections of 5 μm were prepared. These slides were stained with Haematoxilin and Eosin.
The used technique allows for visualization of a specific protein or antigen in cells or tissue sections by binding a specific antibody chemically conjugated with a fluorescent dye. The indirect immunofluorescence staining is a procedure, in which a secondary antibody labelled with a fluorochrome is used to recognize a primary antibody. Immunofluorescence staining can be performed on cells fixed on slides and tissue sections. Immunofluorescence stained samples are examined under a fluorescence microscope or confocal microscope.
INTEGRIN (ITGB1): Mouse monoclonal antibody anti-Integrin beta 1 (Abcam, ab3167) diluted at 2 μg/ml for a 2 h incubation at room temperature in 1% BSA in PBS; and the secondary antibody in Alexa Fluor 488 goat anti-mouse (Invitrogen, A10680). The nuclei were stained with Dapi.
The slices were examined under a Leica DM 2500 FLUO microscope and analyzed by Leica LAS software.

ZO-1 = test: Re-epithelization after injury by immunohistochemistry on ZO-1; format: cell-based, human; conditions: injured RHO, vs injured control; FIG. 7
Method: The RHO samples for this assessment were prepared according to the procedure of example 1. At the end of the exposures (at least overnight), the tissue samples were fixed in buffered 10% formalin. Samples were included in paraffin blocks and sections of 5 μm were prepared. These slides were stained with Haematoxilin and Eosin. The used technique allows for visualization of a specific protein or antigen in cells or tissue sections by binding a specific antibody chemically conjugated with a fluorescent dye. The indirect immunofluorescence staining is a procedure, in which a secondary antibody labelled with a fluorochrome is used to recognize a primary antibody. Immunofluorescence staining can be performed on cells fixed on slides and tissue sections. Immunofluorescence stained samples are examined under a fluorescence microscope or confocal microscope. […] ZO-1: Rabbit polyclonal antibody anti-ZO-1 (Invitrogen, 61-7300), diluted at 5 μg/ml for an overnight incubation at 4° C. in 1% bovine serum albumin (BSA) in PBS; and the secondary antibody in Alexa Fluor 555 donkey anti-rabbit (Invitrogen, A31572). The nuclei were stained with (4′,6-diamidino-2-phenylindole) (Dapi). The slices were examined under a Leica DM 2500 FLUO microscope and analyzed by Leica LAS software.

Molecule: [H]/N=C(\N/C(=N/[H])NCCCCCCNC(=N)NC(=N)Nc1ccc(Cl)cc1)Nc1ccc(Cl)cc1 [CHL, chlorhexidine, reference compound]
- bacterial count, result in words ([1]; 0.2% applied 24 h before colonization with S. Aureus, FIGS. 9 and 10): strong bactericidal property
- TEER (barrier function) of colonized RHO ([2]; 0.2% applied 24 h before colonization with S. Aureus for 4 h, then 16 h incubation, FIG. 8): TEER decreased

Molecule: hyaluronic acid [high molecular weight hyaluronic acid]
- film forming on the tissue surface [3]: film forming was observed
- film forming on the tissue surface ([3]; listed as hyaluronic acid of high molecular weight): forming a film on the skin surface
- tissue repair / wound recovery seen by SEM [3]: significantly less advanced

Molecule: hyaluronic acid [intermediate molecular weight hyaluronic acid]
- TEER (barrier function) after injury [4]: improved the barrier function after an injury
- tissue repair / wound recovery seen by SEM [3]: active process of tissue repair
- decrease of the bacterial count, apical compartment ([1]; 0.2% w/v applied 24 h before colonization with S. Aureus, FIG. 9): about 50%
- decrease of the bacterial count, homogenate compartment ([1]; 0.2% w/v applied 24 h before colonization with S. Aureus, FIG. 10): about 50%
- total bacterial count (bacterial proliferation) ([1]; summary of examples 5-9): −50%
- polysaccharide matrix (biofilm formation) by SEM ([5]; FIG. 13): No polysaccharide matrix is visible
- colonies in cluster by SEM ([5]; FIG. 13 vs FIG. 12): less colonies are in cluster
- TEER (barrier function) of colonized RHO [2]: did not affect TEER
- Integrin beta 1 expression (immunofluorescence) (Integrin beta 1 (ITGB1); listed as hyaluronic acid of intermediate molecular weight): over-expression of integrin beta 1 exclusively

Molecule: hyaluronic acid [low molecular weight hyaluronic acid]
- TEER (barrier function) after injury [4]: improved the barrier function after an injury
- tissue repair / wound recovery seen by SEM [3]: led to a recovery of the wound
- ZO-1 expression (immunofluorescence) (ZO-1): induced an over-expression
- Integrin beta 1 expression (immunofluorescence) (Integrin beta 1 (ITGB1)): induced an over-expression
